Measured values from US20030224522A1, “Methods for delivering nucleic acid molecules into cells and assessment thereof” (priority 2002, published 2003).

Key:
CHO-KI cells = assay: Ultrasound mediated transfection of GFP chromosomes with Saint-2; assay type: cell-based
Experimental: CHO-KI cells were grown at 37°, 5% CO2, in CHO-S-SFM 2 Medium, (Gibco BRL, Paisley, UK). Between 2×10^5 and 5×10^5 cells were plated onto sterile glass slides in a 12 well plate 24 h before usage.
Transfection of the cells was performed as follows. The medium was removed from the cells, and the cells were washed twice with HBSS (Hanks balanced salt solution without Phenol Red (Gibco BRL, UK)) at 37° C. Then 500 μl HBSS at 37° C. was added per well, followed by 10 μl of the freshly prepared vesicle solution (prepared in Example 2) to yield a final concentration of 23.3 nmol/ml.
Alternatively, the medium was removed from the cells, and the cells were washed twice with HBSS. 500 μl HBSS/lipid solution at 37° C. was added to each well. The HBSS/lipid solution was prepared by adding 1 μl ethanolic lipid solution (prepared as described above) to 500 μHBSS under vigorous vortexing. The plates were then sealed with parafilm tape and shaken gently at room temperature for 30 min. After incubation, ultrasound was applied at an output energy of 0.5 Watt/cm^2 for 60 sec through the bottom of the plate to the cells. The ultrasound was mediated by an ultrasound gel (Aquasonic 100, Parker, N.J.) between transducer and plate. The ultrasound was applied with an ImaRx Sonoporator 100. Immediately after applying ultrasound one GFP chromosome per seeded cell (2×10^5-5×10^5) (prepared in Example 1) was added. The plate was then sealed again and shaken gently for 1 h at room temperature. After the incubation 1 ml medium (CHO—S—SFM 2 with 10% Fetal Calf Serum, 10000 μg/ml Penicillin and 10000 μg/ml Streptomycin Gibco BRL, Paisley, UK) was added to each well and the cells were incubated for 24 h at 37° C. The cells were then washed with medium and 1 ml medium was added and the cells were incubated at 37° for another 24 h. Detection of expressed genes was then assayed by microscopy or detection of the transferred chromosome by FISH analysis.
The negative control was performed in the same way, but with no chromosomes added to the cells.

Hep-G2 cells = assay: as above; assay type: cell-based, human; conditions: of the cells remaining on the slide
Experimental: Hep-G2 cells were grown at 37° C., 5% CO2, in DMEM with 4500 mg/l Glucose, with Pyridoxine/HCL, 10% Fetal Calf Serum, 10000 μg/ml Streptomycin and 1000 μg/ml Penicillin. Between 2×10^5 and 5×10^5 cells were plated onto sterile glass slides in a 12 wells plate 24 hours before usage.
Cells were transfected with GFP chromosomes using the procedure of Example 6A except that the CHO—KI medium was replaced with Hep-G2 medium.

A9 cells = assay: as above; assay type: cell-based, murine; conditions: of the cells remaining on the glass
Experimental: A9 cells were grown at 37° C., 5% CO2, in DMEM with 4500 mg/l Glucose, with Pyridoxine/HCL, 10% Fetal Calf Serum, 10000 μg/ml Streptomycin and 10000 μg/ml Penicillin (GIBCO BRL, Paisley, UK). Between 2×10^5 and 5×10^5 cells were plated onto sterile glass slides in a 12 well plate 24 h before usage.
Cells were transfected with GFP chromosomes using the procedure of Example 6A except that CHO-KI medium was replaced with A9 medium.

LM(tk−) cells [1] = assay: ACes transfection at time points after release of nocodazole block, hygromycin selection and FISH; assay type: cell-based, murine; conditions: nocodazole synchronized colonies (20/47), LipofectAMINE PLUS or Superfect; asynchronous control colonies 4% (2/49)
Experimental: Cells were plated at 7.5×10^5 cells per well of a 6-well plate 24 hours prior to nocodazole treatment. The cells were incubated with nocodazole for 6 hours. After the 6 hour incubation, wells were hosed with medium to dislodge the suspension fraction of cells. Nocodazole containing medium was removed and the wells were washed with fresh medium. The wash medium was aspirated and fresh medium was replaced in the wells. To determine the optimum time point for transfection, different cell samples were transfected at different time points after release of the nocodazole block. The time points were 0, 2, 4, 6, 8, 12, and 16 hours after release of the nocodazole block. Following transfer, the cells were plated and transfectants identified using hygromycin selection. Highest colony formations were achieved when transfection occurred 2-4 hours post nocodazole block. At these time points, cell population distribution included approximately 10% of cells in G0/G1, 20% in S, and 70% in G2/M. Transfectants were analyzed using FISH to determine the quality of the transferred material. […]
Cells were synchronized by nocodazole treatment (100 ng/ml final concentration) for 6 hours prior to transfection. […] Twenty-four hours post-transfection the cells are counted (Coulter counter) and a small fraction are plated for a modified toxicity assay. […]

LM(tk−) cells [2] = assay: Nocodazole cell synchronization, cell cycle kinetics by propidium iodide flow cytometry; assay type: cell-based, murine
Experimental: To determine the optimum blocking concentration of nocodazole, nocodazole concentrations were titrated against LM(tk−) cells to generate a dose response. Timing of the optimal blocking concentration (100 ng/ml) was then assessed over 0-1 6 hours using flow cytometry. To determine the cell cycle kinetics of LM(tk−) cell populations at different time points, cells were stained with propidium iodide (PI) at a concentration of […] for 1×10^6 cells and analyzed with a FACS Vantage SE (Becton Dickinson Immunocytometry Systems, San Jose, Calif.) equiped with an argon laser tuned to 488 nm at 200 mW. Whole intact cells were gated on forward scatter (FSC, representing cell size) versus side scatter (SSC, representing internal granularity) and PI emission was detected with a 630/22 filter. A list mode file was generated with a minimum of 20,000 whole intact cells analyzed. The proportion of cells in G0-G1, S and G2-M were documented for each time point. Optimum cell-cycle arrest at the G2/M boundary was achieved by incubating cells with 100 ng/ml nocodazole in serum containing DMEM medium for 6 hours. After 6 hours of nocodazole exposure at 100 ng/ml, approximately 20% of cells were in S phase and 50% of cells were at G2/M. Cell cycle kinetics were again monitored by flow cytometry upon release of the nocodazole block and at frequent intervals over a 16 hour period.

LM(tk−) cells [3] = assay: Thymidine cell synchronization, cell cycle kinetics by flow cytometry; assay type: cell-based, murine; conditions: 16 hours incubation, dose range 1-20 mM tested
Experimental: To determine the optimum parameters for cell cycle synchronization, thymidine was administered to cell samples in a dose range of 1-20 mM. Samples were analyzed by flow cytometry to determine the cell cycle kinetics of LM(tk−) cell populations at frequent intervals over a 16 hour time period. Optimum synchronization of cells in G0/G1 was achieved by incubating LM(tk−) cells with 10 mM thymidine in serum containing DMEM medium for 16 hours. The thymidine block was released by washing the cells twice in serum-free medium and replacing the medium with complete medium containing 24 μM 2′-deoxycytidine 5′ mono-phosophate (dCMP; Sigma D-7750, St. Louis, Mo.). Cell cycle kinetics were again monitored by flow cytometry upon release of the thymidine block and at frequent intervals over a 16 hour period.

[4] = 2-4 hours post nocodazole block
[5] = after 6 hours of nocodazole exposure at 100 ng/ml

In the case of `CCCCCCCCC=CCCCCCCCCC(CCCCCCCCC=CCCCCCCCC)c1cc[n+](C)cc1.[Cl-]` (stereo not shown) [Saint-2, 1-methyl-4-(1-octadec-9-enyl-nonadec-10-enylenyl) pyridinium chloride], the “GFP positive cells, of original population” value (CHO-KI cells; after 48 hours) is reported as 3%, the “remaining cells positive for green fluorescent protein expression” value (shortened to “remaining cells positive”) (CHO-KI cells; after 48 hours, of the cells remaining on the slide) is reported as 10% and the “cells containing an intact artificial chromosome (FISH)” value (CHO-KI cells; after culturing for two weeks) is reported as 1.4%. The “remaining cells positive” value (Hep-G2 cells) was 80% and the “remaining cells positive” value (A9 cells) was 50%.

For `COC(=O)Nc1nc2ccc(C(=O)c3cccs3)cc2[nH]1` [nocodazole], the “percentage of colonies where at least 50% of the cells had an intact ACes (FISH)” value (LM(tk−) cells [1]) was 43%, the “cells in G0/G1” value (LM(tk−) cells [2]; [4]) was “approximately 10%” and the “cells in G2/M” value (LM(tk−) cells [2]; [4]) was about 70%. The “cells in S” value (LM(tk−) cells [2]; [4]) was about 20%, the “optimal blocking concentration for cell-cycle arrest at the G2/M boundary” value (LM(tk−) cells [2]; 6 hours incubation, serum containing DMEM) was 100 ng/mL and the “cells at G2/M” value (LM(tk−) cells [2]; [5]) was about 50%. The “cells in S phase” value (LM(tk−) cells [2]; [5]) was “approximately 20%”.

With `Cc1cn([C@H]2C[C@H](O)[C@@H](CO)O2)c(=O)[nH]c1=O` [thymidine] the “concentration for optimum synchronization of cells in G0/G1” value (LM(tk−) cells [3]) was 10 mM.
